Source: US5869460A, “Sulfated and phosphated saccharide derivatives, process for the preparation of the same and use thereof” (Sanwa Kaguku Kenkyusho Co., Ltd., priority 1995, dated 1999)

Experiments:
[1] = test system: lung damage model induced by cobra venom factor (CVF); infiltration in neutrocyte (myeloperoxidase); test: Anti-inflammatory action to lung damage model induced by CVF: myeloperoxidase activity as index of infiltration in neutrocyte; assay type: in vivo, Lewis rats; details: Rattus norvegicus, iv, 0.5 h, read-out: Inhibition rate (%), myeloperoxidase activity as index of infiltration in neutrocyte
Description: (§1) Anti-inflammatory action to lung damage model induced by CVF Compounds obtained by Examples and an exemplary known compound (sulfatide) were selected as Test Compounds to check an inflammatory action thereof to a lung damage model induced by cobra venom factor (CVF), in accordance with the method described by M. S. Mulligan et al ["J. IMMUNOL.", Vol.151, page 6410 (1993); and "INT. IMMUNOL.", Vol. 7, page 1107 (1995)].
(§2) Namely, the test compound was intravenously injected by an amount of 0.2 mg/rat to test animals (Lewis rats, age of 8 weeks, 5 animals in each group). After lapsed 5 minutes from administration, CVF (20U/2 ml/kg) was administered in a tail vein, and after 30 minutes, a laparotomy was carried out under nembutal anesthesia to perfuse the lung with phosphate-buffered saline (PBS, pH7.4) by injecting the same from right ventricle and to exenterate the lung. The extracted lung was homogenized with phosphate buffer (pH 7.4), centrifuged to collect a supernatant, and determined absorbance which was admitted as index of bleeding (It measures an amount of hemoglobin and thus detection wave-length was set to 541 nm).
On the other hand, the precipitation obtained by centrifugation was sonicated in the presence of cetrimide and centrifuged to obtain a supernatant, an activity myeloperoxidase therein being measured as an index of infiltration in neutrocyte.
(§3) Each inhibition rate (%) was calculated by
(§4) 100×[1-(value of test compound-value of negative control)/(value of positive control-value of negative control)].

[2] = test system: lung damage model induced by cobra venom factor (CVF); bleeding; test: Anti-inflammatory action to lung damage model induced by CVF: index of bleeding (hemoglobin absorbance, 541 nm, in lung homogenate supernatant); assay type: in vivo, Lewis rats; details: Rattus norvegicus, iv, 0.5 h, read-out: Inhibition rate (%), index of bleeding
Description: as §1, §2, §3, §4

| Compound | inhibition in vivo at 0.2 mg [1] [%] | inhibition in vivo at 0.2 mg [2] [%] |
| --- | --- | --- |
| CC(C)CO[C@@H]1O[C@H](CO)[C@H](O)[C@H](OS(=O)(=O)O)[C@H]1O [Example 1-1, Sodium 2-methylpropyl β-D-galactopyranoside 3-sulfate] | 22 | 22 |
| CC(C)CO[C@@H]1O[C@H](COS(=O)(=O)O)[C@H](O)[C@H](OS(=O)(=O)O)[C@H]1O [Example 1-2, disodium 2-methylpropyl β-D-galactopyranoside 3,6-disulfate] | 22 | 16 |
| CC(C)CO[C@@H]1O[C@H](COS(=O)(=O)O)[C@H](O)[C@H](O)[C@H]1O [Example 2, Sodium 2-methylpropyl β-D-galactopyranoside 6-sulfate] | 32 | 36 |
| CC(C)CO[C@@H]1O[C@H](COS(=O)(=O)O)[C@H](OS(=O)(=O)O)[C@H](OS(=O)(=O)O)[C@H]1O [Example 3-1, trisodium 2-methylpropyl β-D-galactopyranoside 3,4,6-trisulfate] | 36 | 27 |
| CC(C)CO[C@@H]1O[C@H](COS(=O)(=O)O)[C@H](OS(=O)(=O)O)[C@H](OS(=O)(=O)O)[C@H]1OS(=O)(=O)O [Example 3-2, tetrasodium 2-methylpropyl β-D-galactopyranoside 2,3,4,6-tetrasulfate] | 24 | 49 |
| CCCC(CCC)CO[C@@H]1O[C@H](CO)[C@H](O)[C@H](OS(=O)(=O)O)[C@H]1O [Example 4, Sodium 2-pronylpentyl β-D-galactopyranoside 3-sulfate] | 58 | 39 |
| CCCC(CCC)CO[C@@H]1O[C@H](COS(=O)(=O)O)[C@H](O)[C@H](O)[C@H]1O [Example 5, Sodium 2-propylpentyl β-D-galactopyranoside 6-sulfate] | 47 | 52 |
| CCCC(CCC)CO[C@@H]1O[C@H](COS(=O)(=O)O)[C@H](O)[C@H](OS(=O)(=O)O)[C@H]1O [Example 6, Disodium 2-propylpentyl β-D-galactopyranoside 3,6-disulfate] | 12 | 0 |
| CCCC(CCC)CO[C@@H]1O[C@H](COS(=O)(=O)O)[C@H](O)[C@H](OS(=O)(=O)O)[C@H]1OS(=O)(=O)O [Example 7-1, Trisodium 2-propylpentyl β-D-galactopyranoside 2,3,6-trisulfate] | 26 | 36 |
| CCCC(CCC)CO[C@@H]1O[C@H](COS(=O)(=O)O)[C@H](OS(=O)(=O)O)[C@H](OS(=O)(=O)O)[C@H]1OS(=O)(=O)O [Example 7-2, tetrasodium 2-propylpentyl β-D-galactopyranoside 2,3,4,6-tetrasulfate] | 42 | 42 |
| CCCCCCCCCCCCCCCCCCCCCCC(CCCCCCCCCCCCCCCC)CO[C@@H]1O[C@H](CO)[C@H](O)[C@H](OS(=O)(=O)O)[C@H]1O (stereo partly drawn) [Example 8, Sodium 2-hexadecyltetracosyl β-D-galactopyranoside 3-sulfate] | 51 | 53 |
| CC(C)CO[C@@H]1O[C@H](CO)[C@@H](O[C@@H]2O[C@H](CO)[C@H](O)[C@H](OS(=O)(=O)O)[C@H]2O)[C@H](O)[C@H]1O [Example 9-1, sodium 2-methylpropyl O-β-D-galactopyranosyl-(1→4)-β-D-glucopyranoside 3'-sulfate] | 58 | 84 |
| CC(C)CO[C@@H]1O[C@H](CO)[C@@H](O[C@@H]2O[C@H](COS(=O)(=O)O)[C@H](O)[C@H](OS(=O)(=O)O)[C@H]2O)[C@H](O)[C@H]1O [Example 9-2, disodium 2-methylpropyl O-β-D-galactopyranosyl-(1→4)-β-D-glucopyranoside 3',6'-disulfate] | 86 | 100 |
| CCCC(CCC)CO[C@@H]1O[C@H](CO)[C@@H](O[C@@H]2O[C@H](CO)[C@H](O)[C@H](OS(=O)(=O)O)[C@H]2O)[C@H](O)[C@H]1O [Example 10-1, Sodium 2-propylpentyl O-β-D-galactopyranosyl-(1→4)-β-D-glucopyranoside 3'-sulfate] | 66 | 65 |
| CCCC(CCC)CO[C@@H]1O[C@H](CO)[C@@H](O[C@@H]2O[C@H](COS(=O)(=O)O)[C@H](O)[C@H](OS(=O)(=O)O)[C@H]2O)[C@H](O)[C@H]1O [Example 10-2, disodium 2-propylpentyl O-β-D-galactopyranosyl-(1→4)-β-D-glucopyranoside 3',6'-disulfate] | 82 | 63 |
| CCCCCCCCCCCCCCC(CCCCCCCCCCCCCC)CO[C@@H]1O[C@H](CO)[C@@H](O[C@@H]2O[C@H](COS(=O)(=O)O)[C@H](O)[C@H](OS(=O)(=O)O)[C@H]2O)[C@H](O)[C@H]1O [Example 11-1, Disodium 2-tetradecylhexadecyl O-β-D-galactopyranosyl-(1→4)-β-D-glucopyranoside 3',6'-disulfate] | 82 | 100 |
| CCCCCCCCCCCCCCC(CCCCCCCCCCCCCC)CO[C@@H]1O[C@H](COS(=O)(=O)O)[C@@H](O[C@@H]2O[C@H](COS(=O)(=O)O)[C@H](O)[C@H](OS(=O)(=O)O)[C@H]2O)[C@H](O)[C@H]1O [Example 11-2, trisodium 2-tetradecylhexadecyl O-β-D-galactopyranosyl-(1→4)-β-D-glucopyranoside 3',6',6-trisulfate] | 70 | 82 |
| CC(C)CO[C@@H]1O[C@H](COP(=O)(O)O)[C@H](OP(=O)(O)O)[C@H](OP(=O)(O)O)[C@H]1OP(=O)(O)O [Example 12, Octasodium 2-methylpropyl β-D-galactopyranoside 2,3,4,6-tetranhosphate] | 30 | 0 |
| CCCC(CCC)CO[C@@H]1O[C@H](COP(=O)(O)O)[C@H](OP(=O)(O)O)[C@H](OP(=O)(O)O)[C@H]1OP(=O)(O)O [Example 13, Octasodium 2-propylpentyl β-D-galactopyranoside 2,3,4,6-tetranhosphate] | 46 | 43 |
| CCCCCCCCCCCCCCC(CCCCCCCCCCCCCC)CO[C@@H]1O[C@H](COP(=O)(O)O)[C@H](OP(=O)(O)O)[C@H](OP(=O)(O)O)[C@H]1OP(=O)(O)O [Example 14, Octasodium 2-tetradecylhexadecyl β-D-galactopyranoside2,3,4,6-tetraphosphate] | 41 | 55 |
| CC(C)CO[C@@H]1O[C@H](CO)[C@H](OP(=O)(O)O)[C@H](OP(=O)(O)O)[C@H]1O [Example 15, Tetrasodium 2-methylpropyl β-D-galactopyranoside 3,4-diphosphate] | 44 | 45 |
| CCCC(CCC)CO[C@@H]1O[C@H](CO)[C@H](OP(=O)(O)O)[C@H](OP(=O)(O)O)[C@H]1O [Example 16, Tetrasodium 2-propylpentyl β-D-galactopyranoside 3,4-diphosphate] | 70 | 75 |
| CCCCCCCCCCCCCCC(CCCCCCCCCCCCCC)CO[C@@H]1O[C@H](CO)[C@H](OP(=O)(O)O)[C@H](OP(=O)(O)O)[C@H]1O [Example 17, Tetrasodium 2-tetradecylhexadecyl β-D-galactopyranoside 3,4-dinhosphate] | 73 | 74 |
| CCCC(CCC)CO[C@@H]1O[C@H](CO)[C@H](O)[C@H](OP(=O)(O)O)[C@H]1O [Example 18, Disodium 2-propylpentyl β-D-galactopyranoside 3-phosphate] | 51 | 50 |
| CCCC(CCC)CO[C@@H]1O[C@H](CO)[C@@H](O)[C@H](OP(=O)(O)O)[C@H]1OP(=O)(O)O [Example 19, Tetrasodium 2-propylpentyl β-D-glucopyranoside 2,3-diphosphate] | 39 | 43 |
| CCCC(CCC)CO[C@@H]1O[C@H](CO)[C@@H](OP(=O)(O)O)[C@H](OP(=O)(O)O)[C@H]1OP(=O)(O)O [Example 20, Hexasodium 2-propylpentyl δ-D-glucopyranoside 2,3,4-triphosphate] | 40 | 45 |
| CCCC(CCC)CO[C@@H]1O[C@H](CO)[C@@H](O[C@@H]2O[C@H](CO)[C@H](OP(=O)(O)O)[C@H](OP(=O)(O)O)[C@H]2O)[C@H](O)[C@H]1O [Example 21, Tetrasodium 2-propylpentyl O-β-D-galactopyranosyl-(1→4)-β-D-glucopyranoside 3',4'-diphosphate] | 52 | 64 |
